This is an account of results in PMC10385824, “Antiproliferative and Tubulin-Destabilising Effects of 3-(Prop-1-en-2-yl)azetidin-2-Ones and Related Compounds in MCF-7 and MDA-MB-231 Breast Cancer Cells” (Pharmaceuticals, 2023).

Broadly, the melting point is the temperature, or range, at which the solid turns liquid. The term amount remaining denotes what is left of the initial amount, in per cent. A high value points to greater stability.

Each structure is given as a SMILES string. Read-outs that look alike come from different tables or passages of the source.

Series [1] has as its system MCF-7 human breast cancer cells. The series is described as follows: cells.
In series [2] the test system is MDA-MB-231 human breast cancer cells. In words: Alamar Blue cell viability (antiproliferative) assay. It counts as cell-based. Conditions: 72 h, eight concentrations 0.001-50 μM, mean ± SEM, read-out: Antiproliferative Activity IC50.
Series [3] relates to MCF-7 human breast cancer cells. Conditions: for antiproliferative activity in words / IC50: MCF-7; for IC50: read-out: Antiproliferative Activity IC50, 72 h, eight concentrations (0.001–50 mM [sic]), mean ± SEM, Table 5.
The nature of series [4]: HPLC stability under degradation conditions (acid, alkali, heat, light, oxidation).
The nature of series [5]: HPLC stability study in plasma. As to conditions: human, buffered plasma (plasma:buffer 1:9); Plasma; study over 264 h. It counts as in vitro ADME, human. On the procedure: Analytical high-performance liquid chromatography (HPLC) stability studies were performed as follows using Symmetry® column (C18, 5 µm, 4.6 × 150 mm), Waters 2487 Dual Wavelength Absorbance detector, Waters 1525 binary HPLC pump and Waters 717 plus Autosampler (Waters Corporation, Milford, MA, USA) with detection at 254 nm as previously described. Samples were analysed using mobile phase acetonitrile (80%): water (20%), flow rate (1 mL/min) over 10 min. […] First, 30 µL of compound stock solution was diluted with appropriate buffer (1 mL); sample was shaken and injected immediately. Samples were withdrawn and analysed at the following time points: t = 0 min, 5 min, 30 min, 60 min, 90 min, 120 min, 24 h and 48 h. (ii) Thermal stability: Compound stock solution (1 mL) was placed in a glass vial on a heating block for 4 h at 60 °C. The sample was then cooled, diluted (acetonitrile) and analysed. (ii) Oxidising conditions: H2O2 (3%, 0.2 mL) was added to compound stock solution (0.8 mL). The vial was vortexed and retained at 20 °C, and the sample was analysed at 60, 120 180 and 240 min. (iv) Acidic conditions: HCl (0.1 M, 0.2 mL) was added to stock solutions (0.8 mL). The vial was mixed by vortex and retained at 20 °C. A sample was neutralised with NaOH (0.1 M, 0.2 mL) at 60, 120, 180 and 240 min, followed by HPLC analysis. (v) Alkaline conditions: NaOH (0.1 M, 0.2 mL) was added to stock solution (0.8 mL) of the compound in a vial. The vial was mixed by vortex and retained at 20 °C. A sample was neutralised with HCl (0.1 M, 0.2 mL) at 60, 120, 180 and 240 min followed by HPLC analysis. (vi) Photostability study: Compounds (stock solution, 1 mL) were placed in a vial, exposed to UV light for 4 h and then analysed by HPLC as above. Stability studies in plasma: Approval for this study was obtained from the School of Pharmacy and Pharmaceutical Sciences Trinity College Dublin Research Ethics Committee (2020–06-01-MS). Following informed consent, blood was withdrawn from healthy volunteers, and plasma was obtained by centrifugation and kept at −20 °C until further use. […] A sample (250 µL) was then added to the Eppendorf tube containing ZnSO4.7H2O solution (500 µL) (2% w/v ZnSO4 solution in acetonitrile:water, 1:1). The samples were centrifuged (10,000 rpm, 3 min), filtered (0.2 micron filter) and analysed by HPLC as above. Further samples were taken at one-hour intervals.

The nature of series [6]: HPLC stability study in phosphate buffers. It counts as physicochemical. Conditions: for remaining at 264 h, 14.6 µg/mL: phosphate buffer, study over 264 h.
Where [7] appears, read: MCF7, read-out: Antiproliferative Activity IC50, MCF-7, eight concentrations 0.001–50 μM, mean ± SEM, Table 3.
Where [8] appears, read: MCF7, 72 h, read-out: Antiproliferative Activity IC50, MCF-7, 72 h, eight concentrations 1–50 μM, mean ± SEM, Table 2.

Take `C=CC[C@@H]1C(=O)N(c2cc(OC)c(OC)c(OC)c2)[C@H]1c1ccc(C)cc1` (relative stereo) [10g, 3-Allyl-4-p-tolyl-1-olyl-1-(3,4,5-trimethoxyphenyl)azetidin-2-one]: the values for the IC50 in series [1] (setting [7]) and in series [2] were 199 ± 30 nM and 377 ± 60 nM, respectively.

`C=C(C)C1C(=O)N(c2cc(OC)c(OC)c(OC)c2)C1c1ccc(Cl)cc1` (stereo not drawn) [9b, 4-(4-Chlorophenyl)-1-(3,4,5-trimethoxyphenyl)-3-(prop-1-en-2-yl)azetidine-2-one] gave a melting point of 137 to 138 °C. For the same compound, in series [3], the “antiproliferative activity in words” value was “sub-micromolar”. In series [1] (setting [8]), the IC50 stood at 630 ± 70 nM.

`C=C(C)C1C(=O)N(c2cc(OC)c(OC)c(OC)c2)C1c1ccc(Br)cc1` (stereo not drawn) [9c, 4-(4-Bromophenyl)-1-(3,4,5-trimethoxyphenyl)-3-(prop-1-en-2-yl)azetidine-2-one] gave a melting point of 130 to 131 °C. Besides, in series [3], the “antiproliferative activity in words” value is “sub-micromolar”.

Turning to `C=C(C)C1C(=O)N(c2cc(OC)c(OC)c(OC)c2)C1c1ccc(N(C)C)cc1` (stereo not drawn) [9e, 4-(4-Dimethylaminophenyl)-1-(3,4,5-trimethoxyphenyl)-3-(prop-1-en-2-yl)azetidine-2-one], the “antiproliferative activity in words” value in series [3] is given as “sub-micromolar”. The IC50 in series [1] (setting [8]) was 5950 ± 920 nM.

`C=C(C)C1C(=O)N(c2cc(OC)c(OC)c(OC)c2)C1c1ccc(C)cc1` (stereo not drawn) [9g, 4-p-Tolyl-1-(3,4,5-trimethoxyphenyl)-3-(prop-1-en-2-yl)azetidine-2-one] gave a melting point of 102 to 104 °C. Moreover, in series [3], the “antiproliferative activity in words” value is listed as “sub-micromolar”. In addition, the IC50 in series [2] amounted to 246 ± 17 nM.

`C=C(C)C1C(=O)N(c2cc(OC)c(OC)c(OC)c2)C1c1ccc(OCC)cc1` (stereo not drawn) [9i, 4-(4-Ethoxyphenyl)-1-(3,4,5-trimethoxyphenyl)-3-(prop-1-en-2-yl)azetidin-2-one] had a melting point of 100 to 102 °C. In series [1] (MCF7, MCF-7), this compound had an IC50 of 81 nM. Further, in series [2], the IC50 stood at 171 ± 11 nM.

Consider `C=C(C)C1C(=O)N(c2cc(OC)c(OC)c(OC)c2)C1c1ccc2ccccc2c1` (stereo not drawn) [9n, 4-Naphthalen-2-yl-1-(3,4,5-trimethoxyphenyl)-3-(prop-1-en-2-yl)azetidin-2-one], for which the melting point lay within 123 to 124 °C. Also, the “fold more potent than the 1-naphthyl compound 9m” value in series [3] (MCF-7 IC50 ratio) is recorded as 58 fold. The IC50 in series [1] (setting [8]) amounted to 78100 ± 5470 nM. In series [1] (MCF7, MCF-7), this compound yielded an IC50 of 139 nM. Also, in series [2], the IC50 was found to be 529 ± 80 nM.

`C=C(C)C1C(=O)N(c2cc(OC)c(OC)c(OC)c2)C1c1ccc(SC)cc1` (stereo not drawn) [9o, 4-(4-(Methylthio)phenyl)-3-(prop-1-en-2-yl)-1-(3,4,5-trimethoxyphenyl)azetidin-2-one] showed a melting point of 99 to 100 °C. Also, in series [3], the “antiproliferative activity in words” value is “sub-micromolar”. The IC50 in series [1] (setting [8]) amounted to 272000 ± 26400 nM.

In the case of `C=C(C)C1C(=O)N(c2ccc(SC)cc2)C1c1cc(OC)c(OC)c(OC)c1` (stereo not drawn) [9t, 1-(4-(Methylthio)phenyl)-3-(prop-1-en-2-yl)-4-(3,4,5-trimethoxyphenyl)azetidin-2-one], the melting point was 113 to 115 °C. Further, the “antiproliferative activity in words” value in series [3] was “minimal”. Also, in series [1] (setting [8]), the IC50 turned out to be 131 ± 40 nM.

The compound `C=C(C)C1C(=O)N(c2ccc(OCC)cc2)C1c1cc(OC)c(OC)c(OC)c1` (stereo not drawn) [9u, 1-(4-Ethoxyphenyl)-3-(prop-1-en-2-yl)-4-(3,4,5-trimethoxyphenyl)azetidin-2-one] showed a melting point of 106 to 108 °C. For the same compound, the “antiproliferative activity in words” value in series [3] is reported as “minimal”.

As to `C=C(C)C1C(=O)N(c2ccc(OC)cc2)C1c1cc(OC)c(OC)c(OC)c1` (stereo not drawn) [9v, 1-(4-Methoxyphenyl)-3-(prop-1-en-2-yl)-4-(3,4,5-trimethoxyphenyl)azetidin-2-one], the melting point is 128 to 130 °C. Also, the “antiproliferative activity in words” value in series [3] is “minimal”. Further, the IC50 in series [1] (setting [8]) was determined as 1160 ± 120 nM.

For the compound `C=CCC1C(=O)N(c2cc(OC)c(OC)c(OC)c2)C1c1ccc(OCc2ccccc2)cc1` (stereo not drawn) [10l, 3-Allyl-4-(4-benzyloxyphenyl)-1-(3,4,5-trimethoxyphenyl)azetidin-2-one], the melting point is 140 to 141 °C. Moreover, the IC50 in series [1] (setting [7]) is 7390 ± 670 nM. Further, the IC50 in series [2] was 486 ± 60 nM.

As for `C=CCC1C(=O)N(c2cc(OC)c(OC)c(OC)c2)C1c1cccc2ccccc12` (stereo not drawn) [10m, 3-Allyl-4-naphthalen-1-yl-1-(3,4,5-trimethoxyphenyl)azetidin-2-one], the melting point lay in the range of 139 to 140 °C. In series [1] (setting [7]), the IC50 was 210 ± 26 nM. For the same compound, the IC50 in series [2] was 656 ± 130 nM.

`C=CCC1C(=O)N(c2cc(OC)c(OC)c(OC)c2)C1c1ccc(OC)c([N+](=O)[O-])c1` (stereo not drawn) [10q, 3-Allyl-4-(4-methoxy-3-nitrophenyl)-1-(3,4,5-trimethoxyphenyl)azetidin-2-one] had a melting point of 108 to 110 °C. In addition, in series [1] (setting [7]), the IC50 is 619 ± 70 nM. Besides, the share remaining at 4 h in series [4] (1M HCl added to stock solution, % Remaining, 1M HCl (0.1 mL, 20 °C, 4h)) turned out to be 99.2%. In series [4] (1M HCl added to stock solution, % Remaining, 1M HCl (0.2 mL, 50 °C, 4h)), this compound showed a share remaining at 4 h of 98.7%. In addition, the share remaining at 4 h in series [4] (1M NaOH added to stock solution, % Remaining, 1M NaOH (0.1 mL, 20 °C, 4h)) worked out at 97.8%. The compound further gave an amount remaining at 4 h in series [4] (1M NaOH added to stock solution, % Remaining, 1M NaOH (0.2 mL, 50 °C, 4h)) of 97.8%. In series [4] (30% H2O2 added to stock solution, Hydrogen peroxide (30 % H2O2, 0.2 mL), 20 °C, 6h), this compound registered a fraction remaining at 6 h of 92%. For the same compound, the share remaining at 312 h, 0.5 mg/mL in series [4] (solution in acetonitrile:water 80:20, daylight, % Remaining, Daylight (acetonitrile (80%):water (20%) 13 days)) stood at 100%. For the same compound, the fraction remaining at 5 h, 0.5 mg/mL in series [4] (stock solution in acetonitrile:water 80:20, heated, % Remaining, 80 °C (heating block, 5 h)) was 100%. The fraction remaining at 264 h, 41.3 µg/mL in series [5] amounted to 90%. Besides, the compound remaining in series [6] (all pH values (4, 7.4, 9), after 11 days) was 22–26%. Moreover, in series [6] (over the pH range studied), the stability in words entry is on record as “poor stability”. In series [6] (pH 4.0), this compound registered an amount remaining at 264 h, 14.6 µg/mL of 26%. For the same compound, the share remaining at 264 h, 14.6 µg/mL in series [6] (pH 7.4) amounted to 25%. For the same compound, the fraction remaining at 264 h, 14.6 µg/mL in series [6] (pH 9.0) amounted to 22%.

The compound `C=CC=CC1C(=O)N(c2cc(OC)c(OC)c(OC)c2)C1c1ccc(C)cc1` (stereo not drawn) [11g, 3-(Buta-1,3-dienyl)-4-p-tolyl-1-(3,4,5-trimethoxyphenyl)azetidin-2-one] returned a melting point of 88 to 89 °C. Besides, the IC50 in series [1] (MCF7, read-out: Antiproliferative Activity IC50, MCF-7, eight concentrations 0.001–50 μM, mean ± SEM, Table 4) came out at 200 ± 40 nM. Also, in series [2], the IC50 was 160 ± 14 nM.

Take `COC(=O)C1=C(C(=O)OC)C(C2C(=O)N(c3cc(OC)c(OC)c(OC)c3)C2c2cccc3ccccc23)CC=C1` (stereo not drawn) [22a, Dimethyl-6-(1-(3,4,5-trimethoxyphenyl)-2-(naphthalen-1-yl)-4-oxoazetidin-3-yl)cyclohexa-1,3-diene-1,2-dicarboxylate]: the IC50 in series [3] was 142000 ± 20300 nM.

For the compound `COC(=O)C1=C(C(=O)OC)C(C2C(=O)N(c3cc(OC)c(OC)c(OC)c3)C2c2cccc3ccccc23)CC=C1` (stereo not drawn) [22b, Dimethyl-6-(1-(3,4,5-trimethoxyphenyl)-2-(naphthalen-1-yl)-4-oxoazetidin-3-yl)cyclohexa-1,3-diene-1,2-dicarboxylate], in series [3], the IC50 stood at 9690 ± 1020 nM.
